Source: ChEMBL document CHEMBL3792297, “Studies on phenothiazines: New microtubule-interacting compounds with phenothiazine A-ring as potent antineoplastic agents” (Bioorg Med Chem, 2016)

Tests used:
[1] = system: MCF7; experiment: Growth inhibition of human MCF7 cells at 10 uM after 48 hrs by SRB assay relative to control; assay type: functional; settings: MCF7, 48 h, read-out: GI
[2] = Growth inhibition of human RPMI8226 cells at 10 uM after 48 hrs by SRB assay relative to control; assay type: functional; settings: RPMI-8226, 48 h, read-out: GI
[3] = system: A498; experiment: Growth inhibition of human A498 cells at 10 uM after 48 hrs by SRB assay relative to control; assay type: functional; settings: A498, 48 h, read-out: GI
[4] = system: NCI-H460; experiment: Growth inhibition of human NCI-H460 cells at 10 uM after 48 hrs by SRB assay relative to control; assay type: functional; settings: NCI-H460, 48 h, read-out: GI
[5] = Growth inhibition of human HL-60(TB) cells at 10 uM after 48 hrs by SRB assay relative to control; assay type: functional; settings: HL-60, 48 h, read-out: GI
[6] = species: Ovis aries; experiment: Inhibition of sheep brain tubulin polymerization at 100 uM by DAPI staining-based fluorimetric method
[7] = system: 786-0; experiment: Growth inhibition of human 786-0 cells at 10 uM after 48 hrs by SRB assay relative to control; assay type: functional; settings: 786-0, 48 h, read-out: GI
[8] = Growth inhibition of human OVCAR8 cells at 10 uM after 48 hrs by SRB assay relative to control; assay type: functional; settings: OVCAR-8, 48 h, read-out: GI
[9] = Growth inhibition of human Hs 578T cells at 10 uM after 48 hrs by SRB assay relative to control; assay type: functional; settings: read-out: GI
[10] = system: SK-MEL-2; experiment: Growth inhibition of human SK-MEL-2 cells at 10 uM after 48 hrs by SRB assay relative to control; assay type: functional; settings: SK-MEL-2, 48 h, read-out: GI
[11] = Growth inhibition of human RXF393 cells at 10 uM after 48 hrs by SRB assay relative to control; assay type: functional; settings: RXF 393, 48 h, read-out: GI
[12] = Growth inhibition of human TK10 cells at 10 uM after 48 hrs by SRB assay relative to control; assay type: functional; settings: TK-10, 48 h, read-out: GI
[13] = system: NCI-H322M; experiment: Growth inhibition of human NCI-H322M cells at 10 uM after 48 hrs by SRB assay relative to control; assay type: functional; settings: read-out: GI
[14] = system: NCI-H522; experiment: Growth inhibition of human NCI-H522 cells at 10 uM after 48 hrs by SRB assay relative to control; assay type: functional; settings: NCI-H522, 48 h, read-out: GI
[15] = Growth inhibition of human HCT116 cells at 10 uM after 48 hrs by SRB assay relative to control; assay type: functional; settings: HCT-116, 48 h, read-out: GI
[16] = Growth inhibition of human IGROV1 cells at 10 uM after 48 hrs by SRB assay relative to control; assay type: functional; settings: IGROV-1, 48 h, read-out: GI
[17] = system: MDA-MB-231; experiment: Growth inhibition of human MDA-MB-231 cells at 10 uM after 48 hrs by SRB assay relative to control; assay type: functional; settings: MDA-MB-231, 48 h, read-out: GI
[18] = Growth inhibition of human UACC62 cells at 10 uM after 48 hrs by SRB assay relative to control; assay type: functional; settings: UACC-62, 48 h, read-out: GI
[19] = Growth inhibition of human UACC257 cells at 10 uM after 48 hrs by SRB assay relative to control; assay type: functional; settings: UACC-257, 48 h, read-out: GI
[20] = system: SR; experiment: Growth inhibition of human SR cells at 10 uM after 48 hrs by SRB assay relative to control; assay type: functional; settings: read-out: GI
[21] = Growth inhibition of human PC3 cells at 10 uM after 48 hrs by SRB assay relative to control; assay type: functional; settings: PC-3, 48 h, read-out: GI
[22] = system: MDA-MB-435; experiment: Growth inhibition of human MDA-MB-435 cells at 10 uM after 48 hrs by SRB assay relative to control; assay type: functional; settings: MDA-MB-435, 48 h, read-out: GI
[23] = system: CCRF-CEM; experiment: Growth inhibition of human CCRF-CEM cells at 10 uM after 48 hrs by SRB assay relative to control; assay type: functional; settings: read-out: GI
[24] = Growth inhibition of human LOXIMVI cells at 10 uM after 48 hrs by SRB assay relative to control; assay type: functional; settings: LOX IMVI, read-out: GI
[25] = system: NCI-H226; experiment: Growth inhibition of human NCI-H226 cells at 10 uM after 48 hrs by SRB assay relative to control; assay type: functional; settings: NCI-H226, 48 h, read-out: GI
[26] = system: HT-29; experiment: Growth inhibition of human HT-29 cells at 10 uM after 48 hrs by SRB assay relative to control; assay type: functional; settings: HT-29, 48 h, read-out: GI
[27] = Growth inhibition of human OVCAR4 cells at 10 uM after 48 hrs by SRB assay relative to control; assay type: functional; settings: OVCAR-4, 48 h, read-out: GI
[28] = Growth inhibition of human COLO205 cells at 10 uM after 48 hrs by SRB assay relative to control; assay type: functional; settings: COLO 205, 48 h, read-out: GI
[29] = Growth inhibition of human UO31 cells at 10 uM after 48 hrs by SRB assay relative to control; assay type: functional; settings: UO-31, 48 h, read-out: GI
[30] = Growth inhibition of human SKOV3 cells at 10 uM after 48 hrs by SRB assay relative to control; assay type: functional; settings: SK-OV-3, 48 h, read-out: GI
[31] = Growth inhibition of human SF295 cells at 10 uM after 48 hrs by SRB assay relative to control; assay type: functional; settings: SF-295, 48 h, read-out: GI
[32] = system: SK-MEL-28; experiment: Growth inhibition of human SK-MEL-28 cells at 10 uM after 48 hrs by SRB assay relative to control; assay type: functional; settings: SK-MEL-28, 48 h, read-out: GI
[33] = Growth inhibition of human DU145 cells at 10 uM after 48 hrs by SRB assay relative to control; assay type: functional; settings: DU-145, 48 h, read-out: GI
[34] = system: EKVX; experiment: Growth inhibition of human EKVX cells at 10 uM after 48 hrs by SRB assay relative to control; assay type: functional; settings: read-out: GI
[35] = Growth inhibition of human Caki1 cells at 10 uM after 48 hrs by SRB assay relative to control; assay type: functional; settings: CAKI-1, 48 h, read-out: GI
[36] = Growth inhibition of human SNB75 cells at 10 uM after 48 hrs by SRB assay relative to control; assay type: functional; settings: SNB-75, 48 h, read-out: GI
[37] = system: MDA-MB-468; experiment: Growth inhibition of human MDA-MB-468 cells at 10 uM after 48 hrs by SRB assay relative to control; assay type: functional; settings: MDA-MB-468, 48 h, read-out: GI
[38] = Growth inhibition of human SF268 cells at 10 uM after 48 hrs by SRB assay relative to control; assay type: functional; settings: SF-268, 48 h, read-out: GI
[39] = system: SN12C; experiment: Growth inhibition of human SN12C cells at 10 uM after 48 hrs by SRB assay relative to control; assay type: functional; settings: read-out: GI

Row | SMILES | inhibition of growth at 10 µM [1] [%] | inhibition of growth at 10 µM [2] [%] | inhibition of growth at 10 µM [3] [%] | inhibition of growth at 10 µM [4] [%] | inhibition of growth at 10 µM [5] [%] | inhibition [6] [%] | inhibition of growth at 10 µM [7] [%] | inhibition of growth at 10 µM [8] [%] | inhibition of growth at 10 µM [9] [%] | inhibition of growth at 10 µM [10] [%] | inhibition of growth at 10 µM [11] [%] | inhibition of growth at 10 µM [12] [%] | inhibition of growth at 10 µM [13] [%] | inhibition of growth at 10 µM [14] [%] | inhibition of growth at 10 µM [15] [%] | inhibition of growth at 10 µM [16] [%] | inhibition of growth at 10 µM [17] [%] | inhibition of growth at 10 µM [18] [%] | inhibition of growth at 10 µM [19] [%] | inhibition of growth at 10 µM [20] [%] | also measured
1 | O=C(c1ccc(F)cc1F)N1c2ccccc2Sc2ccccc21 | 48 | 47 | 38 | 80 | 71 | 25 | 26 | 35 | 16 | 19 | 35 | 23 | 8 | 41 | 73 | 33 | 38 | 68 | 44 | 72 | inhibition of growth at 10 µM [21]: 58%; inhibition of growth at 10 µM [22]: 80%; inhibition of growth at 10 µM [23]: 38%; inhibition of growth at 10 µM [24]: 74%; inhibition of growth at 10 µM [25]: 30%; inhibition of growth at 10 µM [26]: 68%; inhibition of growth at 10 µM [27]: 17%; inhibition of growth at 10 µM [28]: 56%; inhibition of growth at 10 µM [29]: 31%; inhibition of growth at 10 µM [30]: 22%; inhibition of growth at 10 µM [31]: 36%; inhibition of growth at 10 µM [32]: 41%; inhibition of growth at 10 µM [33]: 20%; inhibition of growth at 10 µM [34]: 20%; inhibition of growth at 10 µM [35]: 51%; inhibition of growth at 10 µM [36]: 31%; inhibition of growth at 10 µM [37]: 64%; inhibition of growth at 10 µM [38]: 46%; inhibition of growth at 10 µM [39]: 9%
2 | COc1ccc(C(=O)N2c3ccccc3Sc3ccccc32)c(OC)c1 | 80 | 84 | 95 | 90 | 99 | 53 | 71 | 72 | 85 | 62 | 100 | 44 | 38 | 100 | 91 | 47 | 62 | 86 | 23 | 78 | inhibition of growth at 10 µM [21]: 89%; inhibition of growth at 10 µM [22]: 100%; inhibition of growth at 10 µM [23]: 83%; inhibition of growth at 10 µM [24]: 62%; inhibition of growth at 10 µM [25]: 69%; inhibition of growth at 10 µM [26]: 100%; inhibition of growth at 10 µM [27]: 43%; inhibition of growth at 10 µM [28]: 100%; inhibition of growth at 10 µM [29]: 52%; inhibition of growth at 10 µM [30]: 63%; inhibition of growth at 10 µM [31]: 88%; inhibition of growth at 10 µM [32]: 42%; inhibition of growth at 10 µM [33]: 90%; inhibition of growth at 10 µM [34]: 66%; inhibition of growth at 10 µM [35]: 63%; inhibition of growth at 10 µM [36]: 82%; inhibition of growth at 10 µM [37]: 100%; inhibition of growth at 10 µM [38]: 63%; inhibition of growth at 10 µM [39]: 48%
